Data published in a melting point compilation (Tetko et al.; mined from patent text by program, amines drawn as free bases though some values may be those of a salt).

| SMILES | melting point |
| --- | --- |
| O=C(O)c1ccc(O)c(Oc2ccccc2)c1 | 181 to 183 °C |
| O=C(O)c1cccc(OCc2c(Cl)cccc2Cl)c1 | 187 to 189 °C |
| COc1cc(OC)cc(-c2nc[nH]c2-c2ccc(N(C)C)cc2)c1 | 79 to 81.1 °C |
| Nc1nc(=O)n(C2CC(O)C(CO)O2)cc1F (stereo not given) | 199 to 201 °C |
| O=C(O)CCCCO/N=C(/c1cccnc1)c1cccc(C(F)(F)F)c1 | 70.3 °C |
| CC1=CCC2C(=O)OC(=O)C2C1 (stereo not given) | 58 to 63 °C |
| CC(C)(C)C1=NC=C2C=CC(=O)NC3=C2N1CC3 | 246 to 248 °C |
| CCOc1ccc(OCC(=O)O)c2c1C(=O)N(CSc1nnnn1-c1ccccc1)S2(=O)=O | 187 to 189 °C |
| CSC(=S)NCc1cn(-c2ccc(N3CCOCC3)c(F)c2)nn1 | 148 °C |
| COCn1cc2cc(C)c(NC(=O)c3cc(OC)nn3-c3ncccc3Cl)c(C(=O)NC(C)C)c2n1 | 148 °C |
| COc1ccc(CNc2nc(N)c(C(=O)c3cc(C)sc3C)s2)cc1 | 175 °C |
| CCC(=O)Oc1cc(OC)cc(OC)c1C(=O)C=Cc1ccc(SC)cc1 | 108 °C |
| CN1C(=O)[C@H](NC(=O)CCc2ccc(Cl)cc2Cl)N=C(c2ccccc2N)c2cc(N)ccc21 | 188 to 189 °C |
| S=C1CSc2cc(Cl)ccc2N1 | 202 to 204 °C |
| CN1C2CCC1CC(O)(c1ccc(C(F)(F)F)cc1)C2 (stereo not given) | 189 to 190 °C |
| CN(C)S(=O)(=O)c1cccc(-c2nc(N)nc(N)n2)c1 | 250 to 251 °C |
| O=C(O)CCCCCCOc1cccc(-c2ccccc2)n1 | 74 to 75 °C |
| CCCS(=O)c1nc(OS(C)(=O)=O)c(Cl)cc1Cl (stereo not given) | 92 to 94 °C |
| NC(=O)N(O)Cc1cccc(C(O)C#Cc2ccsc2)c1 (stereo not given) | 151 °C |

| SMILES | melting point |
| --- | --- |
| CCn1ncc2c(ON=C(C)C)c(C(=O)c3ccccc3)cnc21 | 115 to 116 °C |
| COC(=O)C(=O)c1ccc(OCC(=O)c2ccc3ccccc3c2)cc1 | 120 to 121 °C |
| N#Cc1ccc(-c2ccc(Br)cc2)cc1 | 147 to 148 °C |
| COc1ccc2c(c1O)COCc1cc(OC)c(OC)c(OC)c1-2 | 145 to 147 °C |
| O=C1CC(CO)N1C(c1ccccc1)c1ccccc1 (stereo not given) | 101 to 102 °C |
| CS(=O)(=O)c1ccc(OC(Cc2ccc(OCCNC(=O)c3ccc(-c4ccccn4)cc3)cc2)C(=O)O)cc1 (stereo not given) | 231 to 233 °C |
| CCCc1c(C(=O)C(C)C)c2ccc(C(=O)O)cc2n1Cc1ccccc1[N+](=O)[O-] | 214 to 215 °C |
| N#Cc1c(N2CCCCC2)cc(-c2ccc(F)cc2)c2c1Cc1ccccc1-2 | 130 to 132 °C |
| CNC(=O)c1cn2c(C)c(C)nc2c(O)c1CC[C@@H](O)c1ccccc1 | 250 to 252 °C |
| c1cc2c3c(c1)[C@@H]1CCC[C@@H]1N3CCNC2 | 57 to 59 °C |
| CCCCOc1c(NCc2ccc(C#N)cc2Cl)c(=O)c1=O | 148 to 149 °C |
| Cc1cc2c(nc1C(O)c1cccs1)CCCCC2 (stereo not given) | 102 to 104 °C |
| COc1cccc(NCC(=O)Nc2ccc(S(N)(=O)=O)cc2Cl)c1 | 148 to 152 °C |
| CCOc1ccc(OCCOCCOC)c2c1C(=O)N(CSc1ccccc1)S2(=O)=O | 73 to 75 °C |
| CN(C)CCCn1c2c(c3ccccc31)CCSCCC2 | 70 to 71 °C |
| Cc1oc(-c2ccco2)nc1COc1ccc(COc2nn(Cc3ccccc3)cc2C=O)cc1-c1ccccc1 | 122 to 123 °C |
| C=CC(=O)OCc1c2ccccc2cc2ccccc12 | 120 to 125 °C |
| Cc1ccc(-c2c(C(=O)NCc3cc(C(F)(F)F)cc(C(F)(F)F)c3)n(CCCCO)c(=O)c3ncccc23)cc1 | 187 to 188 °C |
| N#Cc1ccc(-c2ccc(Br)o2)nc1 | 196 °C |

| SMILES | melting point |
| --- | --- |
| COC(=O)COc1ccc(-c2c(Br)ccc3sc4ccccc4c23)cc1 | 122 °C |
| COc1ccc(C(C)(C)C)cc1S(N)(=O)=O | 156 to 158 °C |
| FC(F)(F)c1ccc(-n2nc(N3CCN(CC4CC4)CC3)c3ccccc32)cc1 | 98 to 100 °C |
| COc1ccc(S(=O)(=O)N2C(=O)C(CC(=O)N3CCN(c4ccccn4)CC3)(c3ccccc3Cl)c3cc(C)ccc32)c(OC)c1 (stereo not given) | 239 °C |
| O=S(=O)(Nc1cc(Cl)ccc1Cl)c1cc(S(=O)(=O)Nc2cc(Cl)ccc2Cl)c2cc(O)ccc2c1 | 214 to 216 °C |
| CC(C)(C)OC(=O)N[C@H](Cc1ccc(C(F)(F)F)cc1)[C@@H](O)c1ccncc1 (racemic) | 198 to 200 °C |
| Cc1nc(-c2c(F)cccc2F)n[nH]1 | 195 to 198 °C |
| COc1ccccc1N1CCN(CC(O)CS(=O)c2ccc(F)cc2)CC1 (stereo not given) | 164 to 165 °C |
| CCCCc1oc2cc(Br)ccc2c1CC1(c2ccc(OC)cc2)OCN=C1Br (stereo not given) | 93 to 95 °C |
| O=C(O)Cc1c(-c2ccccc2)nn2cccnc12 | 78 to 90 °C |
| NC(=O)c1ccc(C(=C2CC3CCC(C2)N3CCc2ccccc2)c2ccccc2)cc1 | 210 to 212 °C |
| CCc1c(CNS(=O)(=O)Cc2cccc(C(F)(F)F)c2)nn(-c2ccc(Cl)cc2Cl)c1-c1ccc(Br)cc1 | 108 °C |
| Nn1nc(-c2ccccc2)cc1OCCN1CCCC1 | 138 °C |
| CC(C)N1C(=O)C2Cc3c(nc(C(=O)c4ccccc4)n3Cc3ccccc3)CN2C1=O (stereo not given) | 215 to 217 °C |
| OCCCc1conc1-c1ccc(Cl)c(Cl)c1 | 62 to 63 °C |
| CCN(C)C(=O)NS(=O)(=O)c1ccccc1OC(Cl)=CCl | 179 to 180 °C |
| O=Cc1ccc(-n2ncc3sc4ccccc4c32)cc1 | 261 to 263 °C |
| C=C(Nc1nc(-c2ccccc2)c(-c2nc3ccccc3c(=O)n2-c2ccc(C)cc2)s1)c1ccco1 | 231 to 232 °C |

Other lines, results leading:

| melting point | SMILES |
| --- | --- |
| 72 to 73 °C | COc1cc([N+](=O)[O-])cc(OC(F)F)c1OC |
| 55 to 56 °C | CC(NOCc1ccccc1)c1cc2ccccc2s1 (stereo not given) |
| 174 °C | NC(=O)N(O)Cc1ccc(-c2ccccc2)s1 |
| 189 to 192 °C | Cc1ccc(-c2ccc3c(c2)C=C(C(=O)N2CCC(NC(=O)C(F)(F)F)CC2)CCO3)cc1 |
| 116 to 118 °C | CN(C)C=C1CCc2ccn(S(=O)(=O)c3ccccc3)c2C1=O |
| 133 to 135 °C | CC(C)c1cc(C(=O)Nc2ccc(C(=O)O)c(F)c2)sc1C(C)C |
| 254 to 255 °C | O=C(O)c1ccc(-c2nc(-c3ccccc3)ccc2Cl)cc1 |
| 92 °C | NCC1COc2cc(Cl)cc(-c3ccccc3)c2N1 (stereo not given) |
| 128 °C | CCOC(=O)Oc1c(OC)cc(Cl)c2c1CN1CCc3cc(OC)c(OCc4ccccc4)cc3C1C2 (stereo not given) |
| 71 to 77 °C | CCCCn1c(CC)ccc1C(=O)c1cccc(N)c1 |
| 117 to 118 °C | CS(=O)c1ccc(C2=C(Br)C(=O)C(C)(C)O2)cc1 (stereo not given) |
| 148 to 151 °C | N#Cc1ccc(OCCCCCCOc2ccc(-c3cc4cc(C#N)ccc4o3)cc2)cc1 |
| 290 °C | CC(C)c1ccc2c(c1)c(S(=O)(=O)c1ccccc1)c(CC(C)(C)C(=O)O)n2Cc1ccc(N)cc1 |
| 195 °C | COC(=O)C1Cc2c([nH]c3ccccc23)C(c2ccc(O)c(OC)c2)N1 (stereo not given) |
| 149 to 150 °C | CCOC(=O)Cc1ccc(NC(=O)C(CO)NS(=O)(=O)c2ccc(Br)cc2)cc1 (racemic) |
| > 300 °C | O=C(O)Cn1c(=O)c(=O)[nH]c2cc(C(F)(F)F)c(-n3ccc(CNCc4ccccc4)c3)cc21 |
| 170 to 172 °C | Fc1ccc(-c2c[nH]c([C@@H](NC3CCC3)C3CCCCC3)n2)cc1 |
| 276 to 278 °C | COC(=O)c1ccc(N2CCC(c3ccc4c(c3)C(C)(C)CCC4(C)C)=N2)cc1 |
| 154 to 155 °C | Clc1nc(C(Cl)(Cl)Cl)nc2ccc(I)cc12 |
| 209 to 210 °C | CCOC(=O)c1cnn2c(-c3ccncc3)ccnc12 |
| 247 to 249 °C | Nc1nc2ccccc2c2sc(CO)nc12 |
| 152 to 153 °C | OC(CCc1ccccc1)c1cnc2sc3c(n12)CCCC3 (stereo not given) |

| melting point | SMILES |
| --- | --- |
| 227 °C | CCC(=O)On1c(=O)c(=O)[nH]c2cc(C(F)(F)F)c(C#N)cc21 |
| 151 °C | CC1(C)Cc2c(N)c(Cl)cc(-c3nc(C4CCN(CCCC#N)CC4)no3)c2O1 |
| 116 to 120 °C | O=C(NCCC1CCCCC1)c1cc(-c2ccc(Cl)c(C(=O)O)n2)ccc1Cl |
| 161 to 164 °C | CCOc1ccc2c(c1C=NO)OCO2 |
| 186 to 187 °C | CCN(CC)S(=O)(=O)c1cc(Br)c(N)c(Br)c1 |
| 172 to 174 °C | CC(=O)Nc1cc(C(=O)OCCN2CCCCC2)c2oc(-c3ccccc3)cc2c1 |
| 154 to 155 °C | COc1ccc2c(c1)Sc1ccc(C(C)C(N)=O)cc1C(=O)C2 (stereo not given) |
| 240 to 241 °C | CC(=O)c1cc(Nc2cc(C)nc(N)n2)cc(C(C)=O)c1 |
| 131 to 133 °C | OC(c1cccnc1)c1c[nH]c2ccc(F)cc12 (stereo not given) |
| 130 to 131 °C | O=C1CCCN1C(=O)Oc1cccc([N+](=O)[O-])c1 |
| 172 to 174 °C | Nc1ccc(NC=C(S(=O)(=O)c2ccccc2)S(=O)(=O)c2ccccc2)nc1 |
| 170 to 171 °C | Cc1oc(-c2ccco2)nc1COc1ccc(COc2nn(Cc3ccccc3)cc2C(=O)O)cc1 |
| 138 to 140 °C | O=C(NC1=NN(c2ccc(Cl)cc2)C(c2ccc(Cl)cc2)C1)C(F)(F)F (stereo not given) |
| 170 to 171 °C | CCOC(=O)c1cc(OCN2C(=O)c3c(C(C)C)cc(OC)cc3S2(=O)=O)n(-c2ccccc2)n1 |
| 84 to 86 °C | COC(=O)[C@H](Cc1ccccc1)NC(=S)Cc1ccc(C)cc1 |
| 184 °C | CCCn1ccn(-c2ccc(N3CCN(c4ccc(OC)cc4)CC3)cc2)c1=O |
| 237 °C | CN1CC(C(O)C(O)C(O)CO)OC1=C(C#N)C=C1Nc2ccccc2C1=O (stereo not given) |
| 145 °C | CC(C)(C)c1ccc(C2(Cl)CN(C(c3ccccc3)c3ccccc3)C2)cc1 |
| 187 to 189 °C | COc1ccc(-c2cnn3c(-c4cccc(NC(=O)CC(C)C)c4)ccnc23)cc1C=O |
| > 250 °C | CCOCc1nc2c(N)nc3cc(N4CCOC4=O)ccc3c2n1CC(C)(C)O |
| 157 to 159 °C | O=C(O)CCc1[nH]nc2c1CCC2 |
| 108 to 110 °C | CCN1CCN(c2ccc(C(=O)NCCCCCCCCCCCCO)cn2)CC1 |
